According to publication PMC7655571, “Acetylcholinesterase inhibition in electric eel and human donor blood: an in vitro approach to investigate interspecies differences and human variability in toxicodynamics” (Archives of Toxicology, 2020):
Read-outs that look alike come from different tables or passages of the source.

Experiments:
[1] = target: T1, Electrophorus electricus AChE (Electrophorus electricus, UniProt O42275); experiment: AChE inhibition, electric eel enzyme (Ellman method); type: biochemical; settings: for AChE inhibition (in words), electric eel: concentration–response curves
T1 construct: purchased Sigma-Aldrich C2888

electric eel AChE = settings: cited from earlier work
human AChE (neocortex) = settings: source: neocortex; ref Jackisch et al. [2009]; cited from earlier work
[2] = measured or estimated in plasma following human exposure, cited from earlier work
human blood AChE = target: T2, human blood AChE (Homo sapiens, UniProt P22303); experiment: AChE inhibition in human donor whole blood (Ellman method); type: biochemical
T2 construct: 90 µL undiluted blood in a 48-wells plate; from tissue; host or cells: venous EDTA whole blood from healthy human donors, lysed and diluted in Triton X-100 buffer

[3] = target: human AChE (recombinant enzyme); settings: source: recombinant enzyme; ref Li et al. ([2019]); cited from earlier work
[4] = 30 min exposure, room temperature

T2 sequence (P22303 32-617 isoform P22303-2 limits assumed): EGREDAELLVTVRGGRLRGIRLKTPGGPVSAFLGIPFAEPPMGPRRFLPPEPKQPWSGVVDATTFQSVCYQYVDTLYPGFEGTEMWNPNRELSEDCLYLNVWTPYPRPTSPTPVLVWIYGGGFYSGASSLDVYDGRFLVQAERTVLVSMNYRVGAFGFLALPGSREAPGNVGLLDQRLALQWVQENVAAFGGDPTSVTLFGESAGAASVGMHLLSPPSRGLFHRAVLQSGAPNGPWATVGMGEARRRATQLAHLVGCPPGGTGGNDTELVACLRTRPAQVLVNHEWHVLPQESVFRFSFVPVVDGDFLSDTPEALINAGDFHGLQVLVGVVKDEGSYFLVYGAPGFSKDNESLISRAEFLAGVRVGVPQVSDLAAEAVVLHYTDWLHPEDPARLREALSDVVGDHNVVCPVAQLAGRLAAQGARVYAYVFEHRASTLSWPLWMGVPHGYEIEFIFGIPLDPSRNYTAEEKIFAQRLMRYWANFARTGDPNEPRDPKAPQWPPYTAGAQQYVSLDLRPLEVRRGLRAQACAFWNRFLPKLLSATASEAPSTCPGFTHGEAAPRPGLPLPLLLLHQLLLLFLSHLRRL
T1 sequence (O42275 24-633): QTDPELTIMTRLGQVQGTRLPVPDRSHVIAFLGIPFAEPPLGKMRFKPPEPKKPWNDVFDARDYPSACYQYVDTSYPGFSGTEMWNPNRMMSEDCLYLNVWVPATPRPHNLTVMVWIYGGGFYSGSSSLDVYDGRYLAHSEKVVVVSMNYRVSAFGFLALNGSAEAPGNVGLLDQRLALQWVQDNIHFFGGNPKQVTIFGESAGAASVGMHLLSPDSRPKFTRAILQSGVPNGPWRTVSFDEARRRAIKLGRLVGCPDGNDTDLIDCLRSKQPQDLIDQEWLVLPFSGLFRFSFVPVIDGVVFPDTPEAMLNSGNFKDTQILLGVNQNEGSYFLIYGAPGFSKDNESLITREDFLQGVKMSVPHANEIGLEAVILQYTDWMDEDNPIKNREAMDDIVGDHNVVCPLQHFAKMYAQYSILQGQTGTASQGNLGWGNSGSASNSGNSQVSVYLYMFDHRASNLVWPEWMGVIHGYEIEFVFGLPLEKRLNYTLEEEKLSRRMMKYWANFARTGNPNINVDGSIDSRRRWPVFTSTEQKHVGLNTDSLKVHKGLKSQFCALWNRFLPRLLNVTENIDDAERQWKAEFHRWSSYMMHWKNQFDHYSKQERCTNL

CCN(C)C(=O)Oc1cccc([C@H](C)N(C)C)c1 [RI, rivastigmine]
IC20 [1, 4]: 16 µM
AChE inhibition (in words), electric eel [1]: show inhibition of AChE

CCOP(=O)(OCC)Oc1cc(C)nc(C(C)C)n1 [DZO, diazinon-oxon]
IC20 [1, 4]: 0.41 µM
IC50 ([1]; 30 min exposure, room temperature, 3–4 independent experiments, read-out: IC50 Electric eel): 1.03 µM
AChE inhibition (in words), electric eel [1]: show inhibition of AChE
AChE inhibition (in words), human blood (human blood AChE; concentration–response curves): show inhibition of AChE
IC20 (human blood AChE; donor 1, read-out: IC20 Value): 0.5 µM
IC50 (human blood AChE; donor 1, read-out: IC50 Value): 1.5 µM
IC20 (human blood AChE; donor 2, read-out: IC20 Value): 0.7 µM
IC50 (human blood AChE; donor 2, read-out: IC50 Value): 1.7 µM
IC20 (human blood AChE; donor 3, read-out: IC20 Value): 1 µM
IC50 (human blood AChE; donor 3, read-out: IC50 Value): 2.3 µM
IC20 (human blood AChE; donor 4, read-out: IC20 Value): 0.4 µM
IC50 (human blood AChE; donor 4, read-out: IC50 Value): 1.5 µM
IC20 (human blood AChE; donor 5, read-out: IC20 Value): 0.7 µM
IC50 (human blood AChE; donor 5, read-out: IC50 Value): 1.6 µM
IC20 (human blood AChE; donor 6, read-out: IC20 Value): 1.4 µM
IC50 (human blood AChE; donor 6, read-out: IC50 Value): 2.6 µM
IC20 (human blood AChE; donor 7, read-out: IC20 Value): 1.2 µM
IC50 (human blood AChE; donor 7, read-out: IC50 Value): 2.4 µM
IC20 (human blood AChE; donor 8, read-out: IC20 Value): 1.2 µM
IC50 (human blood AChE; donor 8, read-out: IC50 Value): 2.2 µM
IC20 (human blood AChE; donor 9, read-out: IC20 Value): 1.1 µM
IC50 (human blood AChE; donor 9, read-out: IC50 Value): 2.1 µM
IC20 (human blood AChE; donor 10, read-out: IC20 Value): 1.9 µM
IC50 (human blood AChE; donor 10, read-out: IC50 Value): 4.5 µM
IC20 (human blood AChE; donor 11, read-out: IC20 Value): 1.7 µM
IC50 (human blood AChE; donor 11, read-out: IC50 Value): 2.9 µM
IC20 (human blood AChE; donor 12, read-out: IC20 Value): 1.9 µM
IC50 (human blood AChE; donor 12, read-out: IC50 Value): 3.7 µM
IC20 (human blood AChE; donor 13, read-out: IC20 Value): 1.1 µM
IC20 (human blood AChE; donor 14, read-out: IC20 Value): 1.3 µM
IC50 (human blood AChE; donor 14, read-out: IC50 Value): 2.8 µM
IC20 (human blood AChE; donor 15, read-out: IC20 Value): 0.9 µM
IC50 (human blood AChE; donor 15, read-out: IC50 Value): 1.9 µM
IC20 (human blood AChE; donor 16, read-out: IC20 Value): 1.3 µM
IC50 (human blood AChE; donor 16, read-out: IC50 Value): 3 µM
IC20 (human blood AChE; donor 17, read-out: IC20 Value): 0.9 µM
IC50 (human blood AChE; donor 17, read-out: IC50 Value): 2.2 µM
IC20 (human blood AChE; donor 18, read-out: IC20 Value): 1.4 µM
IC50 (human blood AChE; donor 18, read-out: IC50 Value): 2.9 µM
IC20 (human blood AChE; donor 19, read-out: IC20 Value): 1.9 µM
IC50 (human blood AChE; donor 19, read-out: IC50 Value): 3.4 µM
IC20 (human blood AChE; donor 20, read-out: IC20 Value): 1.3 µM
IC50 (human blood AChE; donor 20, read-out: IC50 Value): 2.7 µM
Coefficient of variation (CV) C1 Human (human blood AChE; human variability in AChE inhibition, concentration level C1 (Table S2)): 5.9%
Coefficient of variation (CV) C2 Human (human blood AChE; human variability in AChE inhibition, concentration level C2 (Table S2)): 5.7%
Coefficient of variation (CV) C3 Human (human blood AChE; human variability in AChE inhibition, concentration level C3 (Table S2)): 6.8%
Coefficient of variation (CV) C4 Human (human blood AChE; human variability in AChE inhibition, concentration level C4 (Table S2)): 6.1%
Coefficient of variation (CV) C5 Human (human blood AChE; human variability in AChE inhibition, concentration level C5 (Table S2)): 8.5%
Coefficient of variation (CV) C6 Human (human blood AChE; human variability in AChE inhibition, highest concentration C6 (Table S2)): 25%
Human uncertainty factor (UF) UF97.5 (human blood AChE; interindividual differences, concentration closest to the IC20, 95% CI in brackets): 1.4 [1.2–1.6]
IC20 (human blood AChE; whole blood, average of 20 donors, read-out: IC20 Human): 1.2 µM
IC50 (human blood AChE; whole blood, average of 20 donors, read-out: IC50 Human): 2.5 µM
IC50 (electric eel AChE; ref Čolović et al. ([2011])): 0.05 µM
IC50 [3]: 1.3 µM
